Data from the COVID Moonshot data (paper PMC7615835).
Where “and” joins values, the source holds several entries; their conditions need not be identical. Equal values may be shown once.

molecular target: SARS-CoV-2 Main Protease (SARS-CoV-2) (UniProt P0DTD1)

Structure (SMILES)	IC50
c1ccc2oc(C3CCCN(Cc4cnc5cnccn45)C3)nc2c1 (centres undefined)	> 99.5 µM
COc1cc(C(=O)N(c2ccc(C(C)(C)C)cc2)C(C(=O)NCCc2cccc(F)c2)c2cccnc2)sn1 (centres undefined)	> 99.5 µM
Cn1ncc2c(NC(=O)Cc3cccc(Cl)c3)cncc21	34 µM
C=CC(=O)N(Cc1ccccc1Cl)C(C(=O)NC)c1cncc2ccccc12 (centres undefined)	> 99.5 µM
CCOc1ccc(N(C(=O)c2cocn2)C(C(=O)NCCc2cccc(F)c2)c2cccnc2)cc1 (centres undefined)	15.5 µM
CNS(=O)(=O)c1cc2c(cc1OCc1ccccc1)OCO2	> 99.5 µM
Cc1ccc([N+](=O)[O-])c(Nc2cc(Cl)cc(CC(=O)Nc3cncc4ccccc34)c2)c1	2.26 µM
Cc1noc(C)c1CCNC(=O)Nc1cn(CC(C)C)c(=O)c2ccccc12	27.7 µM
CN(C)C(=O)CNC(=O)C(c1cccnc1)N(C(=O)c1ccco1)c1ccc(C(C)(C)C)cc1 (centres undefined)	10.9 µM
COc1ccc2c(NC(=O)C3CN(S(=O)(=O)CC4(C#N)CC4)Cc4ccc(Cl)cc43)cncc2c1 (centres undefined)	0.342 µM
Cc1ccc(Br)nc1C(=O)NC(C)c1nnc2c(=O)[nH]ccn12 (centres undefined)	> 99.5 µM
O=C(Cc1cccc(Cl)c1)Nc1n[nH]c2ccc(F)cc12	> 99.5 µM
O=C(Nc1cc[nH]c(=O)c1)C1CCOc2ccc(Cl)cc21 (centres undefined)	> 99.5 µM
Cc1ccc2ccccc2c1Nc1cc(Cl)cc(CC(=O)Nc2cncc3ccccc23)c1	2.52 µM
COCCNC(=O)[C@@H](c1ccccc1)N1Cc2ccccc2C1=O (stereo in doubt)	> 99.5 µM
O=C(Nc1cncc2cc(F)ccc12)[C@H]1CCS(=O)(=O)c2ccc(Cl)cc21 (stereo in doubt)	24.5 µM
O=C(C[C@@]1(C(=O)Nc2cncc3ccccc23)CCOc2ccc(Cl)cc21)N1CCN(C2CCOC2)CC1 (stereo in doubt)	46.5 µM
N#Cc1ccc(N(C(=O)c2cocn2)C(C(=O)NCCc2cccc(F)c2)c2cccnc2)cc1 (centres undefined)	> 99.5 µM
C=CC(=O)N(c1ccc(C(F)(F)F)cc1)C(C(=O)NCCc1cccc(F)c1)c1cccnc1 (centres undefined)	20.1 µM
O=C(Cc1cc(Cl)cc(NCc2ccc3c(c2)OCO3)c1)Nc1cncc2ccccc12	2.52 µM
NC1CCc2c(NC(=O)C3CCOc4ccc(Cl)cc43)cncc21 (centres undefined)	25.8 µM
O=C(Cc1cc(Cl)cc(Nc2ccncc2I)c1)Nc1cncc2ccccc12	1.68 µM
O=C(CCl)N1CCN(C(c2ccccc2)c2ccccc2)CC1	1.98 µM
CC(C)N(C)S(=O)(=O)N1Cc2ccc(Cl)cc2C(C(=O)Nc2cncc3ccccc23)C1 (centres undefined)	0.126 µM
COc1cc(N(C(=O)c2cnc[nH]2)C(C(=O)NCCc2cccc(F)c2)c2cccnc2)ccc1S(=O)(=O)N(C)C (centres undefined)	> 99 µM

Structure (SMILES)	IC50
O=C(Cc1cccc(Cl)c1)Nc1cncc2c1CCC2	5.16 µM
O=C(Cc1cc(Cl)cc(Nc2n[nH]cc2Br)c1)Nc1cncc2ccccc12	5.04 µM
Cc1cc2c(cc1S(=O)(=O)N1CCN(c3ccccc3)CC1)OCO2	> 99.5 µM
Cc1cc(Br)cc(C)c1Nc1cc(Cl)cc(CC(=O)Nc2cncc3ccccc23)c1	1.71 µM
C#CCCCC(=O)N[C@H](C(=O)N[C@H](CC(C)C)C(=O)NN(CCC(N)=O)C(=O)/C=C/C(=O)OC)C(C)(C)C (stereo in doubt)	< 0.05 µM and 0.044 µM
O=C(Cc1cc(Cl)cc(N2CCN(Cc3cccc(F)c3)CC2)c1)Nc1cncc2ccccc12	3.28 µM
CNC(=O)CN1C[C@H](C(=O)Nc2cncc3cc(Cl)ccc23)c2cc(Cl)ccc2C1=O (stereo in doubt)	0.149 µM
O=C(COCC(=O)N1CCCC1)NC(C(=O)Nc1cncc2ccccc12)c1cccc(Cl)c1 (centres undefined)	6.35 µM and 8.47 µM
CNc1ccc(N(C(=O)Cn2nnc3ccccc32)c2cccc(Cl)c2)cc1	5.34 µM
O=C(Cc1cccc(Cl)c1)NC1CCCNC1=O (centres undefined)	> 99.5 µM
Cc1cc(C)n2ncc(C(=O)Nc3ccc4ncsc4c3)c2n1	> 99.5 µM
Cc1ccc2ncnc(NCc3ccc4nonc4c3)c2c1	> 99.5 µM
O=C(Nc1cncc2ccccc12)C1CCOc2c(O)ccc(Cl)c21 (centres undefined)	> 99.5 µM
CNC(=O)CN1C[C@]2(CC(=O)N(c3cncc4ccccc34)C2=O)c2cc(Cl)ccc2C1=O (stereo in doubt)	84.6 µM
Cc1cccc2cncc(N3CCC4(CCOc5ccc(Cl)cc54)C3)c12 (centres undefined)	> 99.5 µM
Cc1ccc(S(=O)(=O)CNC(=O)C(c2cccnc2)N(C(=O)c2cocn2)c2ccc(C(C)(C)C)cc2)cc1 (centres undefined)	62.9 µM
Cc1nc(Cl)c(Nc2cc(Cl)cc(CC(=O)Nc3cncc4ccccc34)c2)c(Cl)n1	1.64 µM
O=C(Nc1cncc2ccncc12)[C@@H]1CCOc2cc(F)c(Cl)cc21 (stereo in doubt)	0.397 µM and 0.849 µM
Cc1ccncc1NC(=O)Cc1cc(Cl)cc(-c2ncc[nH]2)c1	> 99.5 µM
O=C(Cc1cc(Cl)cc(Nc2ccccc2OCC(F)(F)F)c1)Nc1cncc2ccccc12	1.96 µM
COc1cc(Cl)cc(CC(=O)Nc2cnccc2C)c1	36.8 µM
O=C(Nc1cncc2ccccc12)C1=CCCc2ccc(Cl)cc21	0.233 µM
Cc1ccc(Nc2cc(Cl)cc(CC(=O)Nc3cncc4ccccc34)c2)c(Br)c1	1.9 µM
O=C(Cc1cc(Cl)cc(Nc2cc(Cl)c(Br)cn2)c1)Nc1cncc2ccccc12	1.97 µM
CC(NC(=O)Nc1ccn2ccnc2c1)c1ccc2[nH]c(=O)oc2c1 (centres undefined)	> 99.5 µM

Structure (SMILES)	IC50
O=C(Cc1cc(Cl)cc(NCc2ccc(OC(F)(F)F)cc2)c1)Nc1cncc2ccccc12	5.52 µM
Cc1ccncc1OCCNC(=O)C(C)(C)c1cccc(Cl)c1	> 99.5 µM
CNC(=O)CN1Cc2ccc(Cl)cc2[C@@]2(CCN(c3cncc4c3CCCC4)C2=O)C1 (stereo in doubt)	0.235 µM
CN(C)C(=O)CN1CCN(c2cc(Cl)cc(CC(=O)Nc3cncc4ccccc34)c2)CC1	2.85 µM
C=CC(=O)N(c1ccc(C(C)(C)C)cc1)C(C(=O)Nc1ccc(OC)cc1OC)c1cccnc1 (centres undefined)	6.47 µM
CN(C)S(=O)(=O)N1CCc2ccc(Cl)cc2C1C(=O)Nc1cncc2ccccc12 (centres undefined)	1.97 µM
COc1cc(Cl)cc2c1OCC[C@H]2C(=O)Nc1cncc2ccccc12 (stereo in doubt)	> 99.5 µM
O=C(Nc1ccc(Cl)cc1)[C@@H](c1ccccc1)N1Cc2ccccc2C1=O (stereo in doubt)	> 99.5 µM
O=C(NCCc1cccc(F)c1)C(c1cccnc1)N(C(=O)c1cocn1)C1CCC2(CCO2)CC1 (centres undefined)	> 99.5 µM
C=CC(=O)NCC(=O)N(Cc1ccccc1)C[C@@]1(O)CN2CCC1CC2 (stereo in doubt)	> 99.5 µM
CN(C)S(=O)(=O)c1cccc(C(=O)Nc2c(-c3ccccc3)nc3sccn23)c1	0.975 µM
CC(C)(C)c1ccc(N(C(=O)c2cn(CCN3CCOCC3)nn2)C(C(=O)NCCc2cccc(F)c2)c2cccnc2)cc1 (centres undefined)	10.5 µM
CC(NCc1c[nH]c2nccnc12)c1cc(F)ccc1N1CCC(O)CC1 (centres undefined)	> 99.5 µM
CCN(C(=O)c1ccco1)C(C(=O)NCCc1cccc(F)c1)c1cccnc1 (centres undefined)	> 99.5 µM
Cn1cnc(C(=O)N(c2ccc(C(C)(C)C)cc2)C(C(=O)NCCc2cccc(F)c2)c2cccnc2)cc1=O (centres undefined)	> 99.5 µM
COc1ccc2cncc(NC(=O)[C@@]3(OC)CCOc4ccc(Cl)cc43)c2c1 (stereo in doubt)	4.18 µM
CC(C)c1cccc(C(C)C)c1Nc1cc(Cl)cc(CC(=O)Nc2cncc3ccccc23)c1	1.82 µM
O=C(Cc1cc(Cl)cc(CC2CC(=O)N2)c1)Nc1cncc2ccccc12 (centres undefined)	4.57 µM
CC(C)(C)c1ccc(N(C(=O)c2ccno2)C(C(=O)NCCc2cccc(F)c2)c2cccnc2)cc1 (centres undefined)	1.11 µM
CC(C)(C)c1ccc(N(C(=O)c2cn(C3COCC3=O)nn2)C(C(=O)NCCc2cccc(F)c2)c2cccnc2)cc1 (centres undefined)	19.5 µM
NS(=O)(=O)c1cc(CN2CCN(C(c3ccccc3)c3ccccc3)CC2)co1	> 99.5 µM
CNC(=O)CN1CC2(CCN(c3cncc4ccccc34)C2=O)c2cc(Cl)ccc2S1(=O)=O (centres undefined)	0.275 µM
CS(=O)(=O)Cc1ccc(N(C(=O)c2cocn2)C(C(=O)NCCc2cccc(F)c2)c2cccnc2)cc1 (centres undefined)	27.7 µM
O=C(Nc1cccnc1)N1CCC(CN2CCc3ccccc32)CC1	> 99.5 µM
Cc1nc(Br)ccc1Nc1cc(Cl)cc(CC(=O)Nc2cncc3ccccc23)c1	2.82 µM

Structure (SMILES)	IC50
O=C(Nc1ccc(N(C(=O)c2cocn2)C(C(=O)NCCc2cccc(F)c2)c2cccnc2)cc1)NC1CC1 (centres undefined)	> 99.5 µM
O=C(Cc1cc(Cl)cc(Nc2cnc(Cl)c(Br)c2)c1)Nc1cncc2ccccc12	3.08 µM
Cc1nc2ccc(NC(=O)Cn3ncn4nccc4c3=O)cc2s1	> 99.5 µM
CC(C)(CNC(=O)C1CNC(=O)N1)N1CCc2ccccc2C1 (centres undefined)	> 99.5 µM
Cn1nncc1C(=O)N(c1ccc(C(C)(C)C)cc1)C(C(=O)NCCc1cccc(F)c1)c1cccnc1 (centres undefined)	> 99.5 µM
O=C1N(Cc2cccc(Cl)c2)CCN1c1nccc2n[nH]cc12	4.56 µM
Cc1[nH]c2ccccc2c1/C=N/c1sc2c(c1C#N)CCC(C)C2 (centres undefined)	> 99.5 µM
C[C@@H](C(=O)Nc1cncnc1)c1ccccc1 (stereo in doubt)	> 99.5 µM
Cc1ccncc1NC(=O)Cc1cccc(-c2cn[nH]c2)c1	53.2 µM
Cc1cc(F)cc2cncc(NC(=O)Cc3cccc(Cl)c3)c12	0.851 µM
CC(C)(C)c1cnc(N(C(=O)c2cocn2)C(C(=O)NCCc2cccc(F)c2)c2cccnc2)o1 (centres undefined)	32.4 µM
COc1ccc(C2CC(c3ccccc3)=NN2C(=O)CCl)cc1OC (centres undefined)	0.543 µM
Cc1ccncc1NC(=O)N(C)c1cccc(Cl)c1	> 99.5 µM
NC(=O)c1ccc2c(NC(=O)Cc3cccc(Cl)c3)cncc2c1	1.59 µM
O=C(NCc1ccccn1)[C@H]1CN(C(=O)CCl)CCN1S(=O)(=O)c1ccsc1 (stereo in doubt)	0.307 µM
CN(Cc1cccc(Cl)c1)C(=O)Cn1nnc2ccccc21	> 99.5 µM
CS(=O)(=O)c1ccc2c(NC(=O)C34CC(C3)Oc3ccc(Cl)cc34)cncc2c1	22.9 µM
NCc1cn(CC(=O)N(Cc2cscn2)c2ccc(-c3ccccc3)nc2)nn1	> 99.5 µM
O=C(Cc1cc(Cl)cc(Nc2ccc(-n3cccn3)cc2)c1)Nc1cncc2ccccc12	2.12 µM
O=C(Nc1ccc(F)cc1)[C@@H](c1ccccc1)N1Cc2ccccc2C1=O (stereo in doubt)	> 99.5 µM
O=C(Nc1ccc2ccccc2c1)[C@@H]1CN(C(=O)CCl)CCN1S(=O)(=O)c1ccsc1 (stereo in doubt)	0.523 µM
CN1CCN(c2cncc3ccccc23)C(=O)C1c1cccc(Cl)c1 (centres undefined)	2.21 µM
Cc1ccncc1NC(=O)C(C)c1cccc(Cl)c1 (centres undefined)	27.2 µM and 25.2 µM
O=C(CN(C(=O)Cc1cccnc1)c1ccc(-c2ncccn2)cc1)N1CCNCC1	> 99.5 µM
